Reference: patent US7342029B2, “Substituted indoles” (Sanofi-Aventis Deutschland GmbH, priority 1999, dated 2008)

How the values were obtained:
IκB kinase = target: T1, IκB kinase (Homo sapiens, UniProt O14920+O15111); test: IκB kinase ELISA; type: biochemical; details: kinase complex from HeLa S3 cell extract S100, activated with MEKK1Δ
T1 construct: endogenous in cells; host or cells: HeLa S3 cell extract S100 (ammonium sulfate cut, Superose-6 fractions at 670 kDa)
Description: The activity of the IκB kinase was determined using an ELISA comprising a biotinilated substrate peptide containing the amino acid sequence in the protein IκB of serines 32 to 36 and a specific poly- or monoclonal antibody (for example from New England Biolabs, Beverly, Mass., USA, cat.: 9240), which binds only to the phosphorylated form of the peptide IκB. This complex was immobilized on an antibody-binding plate (coated with protein A) and detected using a conjugate of a biotin-binding protein and HRP (for example streptavidine HRP). The activity could be quantified using a standard curve with substrate phosphopeptide.
To obtain the kinase complex, 10 ml of HeLa S3 cell extract S100 were diluted with 40 ml 50 mM HEPES, pH 7.5, adjusted to 40% ammonium sulfate and incubated on ice for 30 minutes. The precipitated pellet was dissolved in 5 ml SEC buffer (50 mM HEPES, pH 7.5, 1 mM DTT, 0.5 mM EDTA, 10 mM 2-glycerophosphate), centrifuged at 20,000×g for 15 minutes and filtered through a 0.22 μm filter. The sample was applied to a 320 ml Superose-6 FPLC column (Amersham Pharmacia Biotech AB, Uppsala, Sweden) which had been equilibrated with SEC buffer and was operated at a flow rate of 2 ml/min at 4° C. The fractions which corresponded to the elution time of the 670 kDa molecular weight standard were combined for activation. Activation was achieved by a 45-minute-incubation with 100 nM MEKK1Δ, 250 μM MgATP, 10 mM MgCl2, 5 mM dithiothreitol (DTT), 10 mM 2-glycerophosphate, 2.5 μM microcystin LR at 37° C. The activated enzyme was stored at −80° C.
The test substances, dissolved in DMSO (2 μl), were preincubated at 25° C. with 43 μl of activated enzyme (diluted 1:25 in reaction buffer 50 mM HEPES, pH 7.5, 10 mM MgCl2, 5 mM DTT, 10 mM β-glycerophosphate, 2.5 μM microcystin LR) for 30 minutes. 5 μl of substrate peptide (biotin-(CH2)6-DRHDSGLDSMKD-CONH2) (200 μM) were added, the mixture was incubated for one hour and the reaction was quenched using 150 μl of 50 mM HEPES, pH 7.5, 0.1% BSA, 50 mM EDTA, antibody [1:200]. 100 μl of the quenched reaction mixture or a standard phosphopeptide dilution series (biotin-(CH2)6-DRHDS[PO3]GLDSMKD-CONH2) were then transferred to a protein A plate (Pierce Chemical Co., Rockford, Ill., USA) and incubated with shaking for 2 hours.
After 3 washing steps with PBS, 100 μl of 0.5 μg/ml of streptavidin HRP (horseradish peroxidase) (diluted in 50mM HEPES/0.1% BSA) were added for 30 minutes. After 5 washing steps with PBS, 100 μl of TMB substrate (Kirkegaard & Perry Laboratories, Gaithersburg, Md., USA) were added and the development of color was stopped by addition of 100 μl of 0.18 M sulfuric acid. Absorption was measured at 450 nm. The standard curve was generated by […] according to a 4-parameter dose-activity relation. Using this standard curve, the enzyme activity or their inhibition by test substances was quantified.
Each substance was tested in duplicate. The mean of the blank (without enzyme) was subtracted from the means (enzyme with and without substances), and the inhibition in % was calculated. IC50 calculations were carried out using the software package GraFit 3.0.

casein kinase II (CK II) = target: T2, casein kinase II (CK II) (Homo sapiens, UniProt P68400); test: CK II kinase inhibition (Upstate test kit); type: biochemical; details: substance concentration 100 μM; ATP 50 μM
T2 construct: purchased Upstate Biotechnologie
T2 sequence (P68400 whole entry): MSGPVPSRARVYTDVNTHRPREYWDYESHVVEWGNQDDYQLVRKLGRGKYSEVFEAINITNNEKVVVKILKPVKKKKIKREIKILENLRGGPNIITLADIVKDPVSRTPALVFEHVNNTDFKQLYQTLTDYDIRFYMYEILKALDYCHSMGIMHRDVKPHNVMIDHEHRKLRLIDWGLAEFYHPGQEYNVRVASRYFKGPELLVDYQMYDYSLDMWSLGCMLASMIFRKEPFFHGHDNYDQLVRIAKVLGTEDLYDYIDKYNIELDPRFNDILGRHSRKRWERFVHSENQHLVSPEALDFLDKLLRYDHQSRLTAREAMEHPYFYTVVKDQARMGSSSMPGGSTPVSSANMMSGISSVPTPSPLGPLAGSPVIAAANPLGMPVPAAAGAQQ
Description: (§1) cAMP-dependent protein kinase (PKA), protein kinase C (PKC) and casein kinase II (CK II) were determined using the corresponding test kits of Upstate Biotechnologie according to the instructions of the manufacturer at an ATP concentration of 50 μM. However, instead of phosphocellulose filters, multi-screen plates (Millipore; Phosphocellulose MS-PH, cat. MAPHNOB10) with the corresponding aspiration system were used. The plates were then measured in a Wallac MicroBeta scintillation counter. In each case, 100 μM of test substance were used. Each substance was tested in duplicate. The mean of the blank (without enzyme) was subtracted from the means (enzyme with and without substances), and the inhibition in % was calculated. IC50 calculations were carried out using the software package GraFit 3.0.

protein kinase C (PKC) = test: PKC kinase inhibition (Upstate test kit); type: biochemical; details: substance concentration 100 μM; ATP 50 μM
Description: as §1

[1] = target: T3, cAMP-dependent protein kinase (PKA) (Homo sapiens, UniProt P17612); test: PKA kinase inhibition (Upstate test kit); type: biochemical; details: substance concentration 100 μM; ATP 50 μM
T3 construct: purchased Upstate Biotechnologie
Description: as §1

T1 sequence (O14920 whole entry): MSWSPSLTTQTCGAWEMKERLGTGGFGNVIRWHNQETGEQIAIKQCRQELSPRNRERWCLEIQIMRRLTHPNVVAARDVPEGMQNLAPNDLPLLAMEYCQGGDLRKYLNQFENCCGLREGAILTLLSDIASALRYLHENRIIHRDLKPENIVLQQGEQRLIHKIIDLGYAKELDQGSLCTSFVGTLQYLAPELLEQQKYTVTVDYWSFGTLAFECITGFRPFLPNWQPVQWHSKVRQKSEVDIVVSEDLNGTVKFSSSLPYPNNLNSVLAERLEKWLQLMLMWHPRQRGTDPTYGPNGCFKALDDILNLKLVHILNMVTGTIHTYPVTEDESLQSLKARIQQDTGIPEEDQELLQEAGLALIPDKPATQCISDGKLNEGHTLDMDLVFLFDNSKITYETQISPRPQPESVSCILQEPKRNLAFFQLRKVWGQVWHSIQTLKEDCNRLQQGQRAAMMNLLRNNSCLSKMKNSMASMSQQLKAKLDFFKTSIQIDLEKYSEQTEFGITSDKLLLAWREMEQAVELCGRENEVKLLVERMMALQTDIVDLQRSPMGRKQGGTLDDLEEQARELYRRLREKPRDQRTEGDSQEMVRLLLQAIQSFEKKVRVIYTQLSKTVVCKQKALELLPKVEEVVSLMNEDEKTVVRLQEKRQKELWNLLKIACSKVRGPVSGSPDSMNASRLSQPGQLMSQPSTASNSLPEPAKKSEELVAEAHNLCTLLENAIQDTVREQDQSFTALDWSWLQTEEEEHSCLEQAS
T1 sequence (O15111 whole entry): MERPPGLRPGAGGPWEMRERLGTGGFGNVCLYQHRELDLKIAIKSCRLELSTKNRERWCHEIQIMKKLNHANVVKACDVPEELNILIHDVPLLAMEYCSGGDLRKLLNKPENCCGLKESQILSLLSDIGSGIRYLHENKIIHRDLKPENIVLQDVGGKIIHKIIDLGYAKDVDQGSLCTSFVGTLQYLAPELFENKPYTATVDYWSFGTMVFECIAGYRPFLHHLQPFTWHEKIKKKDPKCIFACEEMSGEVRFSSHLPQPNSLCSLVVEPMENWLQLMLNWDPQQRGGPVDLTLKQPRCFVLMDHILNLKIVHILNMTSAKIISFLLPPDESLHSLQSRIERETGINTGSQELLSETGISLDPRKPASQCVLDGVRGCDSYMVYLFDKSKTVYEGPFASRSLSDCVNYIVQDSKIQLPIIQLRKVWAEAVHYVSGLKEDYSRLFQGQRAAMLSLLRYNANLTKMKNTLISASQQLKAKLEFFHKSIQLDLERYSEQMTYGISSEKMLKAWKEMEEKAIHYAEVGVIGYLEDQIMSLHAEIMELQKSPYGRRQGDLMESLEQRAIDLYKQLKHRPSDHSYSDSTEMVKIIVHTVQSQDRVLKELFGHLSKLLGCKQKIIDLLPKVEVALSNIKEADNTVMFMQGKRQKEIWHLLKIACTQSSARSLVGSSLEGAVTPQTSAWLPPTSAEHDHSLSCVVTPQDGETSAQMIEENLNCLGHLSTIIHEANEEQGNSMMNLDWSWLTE
T1 sequence (Q9Y6K9 whole entry partner): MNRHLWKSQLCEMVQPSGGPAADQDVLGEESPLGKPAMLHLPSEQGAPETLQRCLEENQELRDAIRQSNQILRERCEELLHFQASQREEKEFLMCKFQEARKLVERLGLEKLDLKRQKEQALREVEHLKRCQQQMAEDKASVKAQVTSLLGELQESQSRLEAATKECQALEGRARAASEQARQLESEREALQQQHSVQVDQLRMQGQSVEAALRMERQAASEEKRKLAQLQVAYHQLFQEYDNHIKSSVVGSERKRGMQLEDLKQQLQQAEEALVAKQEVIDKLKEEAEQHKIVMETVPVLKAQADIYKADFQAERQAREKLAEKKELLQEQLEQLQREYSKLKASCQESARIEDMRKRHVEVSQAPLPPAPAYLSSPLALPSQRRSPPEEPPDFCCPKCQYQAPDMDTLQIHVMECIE

For `NC(=O)[C@H](CCc1ccccc1)NC(=O)c1ccc2[nH]c(-c3ccccc3)c(-c3ccccc3)c2c1` [Example 1, N-(1-Carbamoyl-3-phenylpropyl)-2,3-diphenyl-1H-indole-5-carboxamide], the melting point was 120 to 125 °C and the IC50 (IκB kinase) was 32000 nM.

With `Cc1c(-c2ccncc2)[nH]c2ccc(C(=O)N[C@@H](CSc3ccccc3)C(=O)O)cc12` [Example 5] the IC50 (IκB kinase) was 1800 nM, the inhibition at 100 µM (casein kinase II (CK II)) was 27% and the PKC % inhibition (protein kinase C (PKC)) was 8%. It also gave an inhibition at 100 µM [1] of 55%.

In the case of `Cc1c(-c2ccncc2)[nH]c2ccc(C(=O)N[C@@H](CCn3cccc3)C(N)=O)cc12` [Example 7, N-(1-Carbamoyl-3-pyrrol-1-ylpropyl)-3-methyl-2-pyridin-4-yl-1H-indole-5-carboxamide], the IC50 (IκB kinase) is reported as 3000 nM and the inhibition at 100 µM (casein kinase II (CK II)) is reported as 18%.

`CCN(C[C@H](NC(=O)c1ccc2[nH]c(-c3ccncc3)cc2c1)C(N)=O)c1ccccc1` [Example 9] showed an IC50 (IκB kinase) of 1000 nM, an inhibition at 100 µM (casein kinase II (CK II)) of 0% and a PKC % inhibition (protein kinase C (PKC)) of 23%. For the same molecule, the inhibition at 100 µM [1] was 0%.

In the case of `O=C(N[C@@H](CSc1ccccc1)C(=O)O)c1ccc2[nH]c(-c3ccncc3)cc2c1` [Example 4], the IC50 (IκB kinase) is reported as 500 nM, the inhibition at 100 µM (casein kinase II (CK II)) is reported as 47% and the PKC % inhibition (protein kinase C (PKC)) is reported as 33%. It also gave an inhibition at 100 µM [1] of 42%.

For `NC(=O)[C@H](CSc1ccccc1)NC(=O)c1ccc2[nH]c(-c3ccncc3)cc2c1` (stereo in doubt) [Example 3, N-(1-carbamoyl-2-phenylsulfanylethyl)-2-pyridin-4-yl-1H-indole-5-carboxamide], the IC50 (IκB kinase) was 550 nM, the inhibition at 100 µM (casein kinase II (CK II)) was 37% and the PKC % inhibition (protein kinase C (PKC)) was 39%. It also gave an inhibition at 100 µM [1] of 35%.

In the case of `NC(=O)[C@H](CCc1ccccc1)NC(=O)c1ccc2[nH]c(-c3ccncc3)cc2c1` [Example 2], the IC50 (IκB kinase) is reported as 610 nM, the inhibition at 100 µM (casein kinase II (CK II)) is reported as 35% and the PKC % inhibition (protein kinase C (PKC)) is reported as 15%. For the same molecule, the inhibition at 100 µM [1] was 24%.

In the case of `Cc1c(-c2ccncc2)[nH]c2ccc(C(=O)N[C@@H](CSc3ccccc3)C(N)=O)cc12` [Example 6], the IC50 (IκB kinase) is reported as 4900 nM, the inhibition at 100 µM (casein kinase II (CK II)) is reported as 39% and the PKC % inhibition (protein kinase C (PKC)) is reported as 58%. The inhibition at 100 µM [1] was 60%.
